The results in this text go back to US10028961B2, “Therapeutically active compounds and their methods of use” (AGIOS PHARMACEUTICALS, INC., priority 2013, dated 2018).

Like-named read-outs stand apart in the source and are kept apart here.

In experiment [1] the target is IDH1-R132H homodimer enzyme (Homo sapiens (Human), UniProt O75874, R132H). In words: In vitro assay IDH1-R132H homodimer, NADPH depletion assay with NADPH/NADP preincubation. It is filed as biochemical. Conditions: 5 μM NADPH and 37.5 μM NADP. The protocol: The following describes the experimental procedures that can be used to obtain data on columns 3 and 5 of Table 5.
Chain of IDH1-R132H homodimer enzyme (O75874 whole entry R132H): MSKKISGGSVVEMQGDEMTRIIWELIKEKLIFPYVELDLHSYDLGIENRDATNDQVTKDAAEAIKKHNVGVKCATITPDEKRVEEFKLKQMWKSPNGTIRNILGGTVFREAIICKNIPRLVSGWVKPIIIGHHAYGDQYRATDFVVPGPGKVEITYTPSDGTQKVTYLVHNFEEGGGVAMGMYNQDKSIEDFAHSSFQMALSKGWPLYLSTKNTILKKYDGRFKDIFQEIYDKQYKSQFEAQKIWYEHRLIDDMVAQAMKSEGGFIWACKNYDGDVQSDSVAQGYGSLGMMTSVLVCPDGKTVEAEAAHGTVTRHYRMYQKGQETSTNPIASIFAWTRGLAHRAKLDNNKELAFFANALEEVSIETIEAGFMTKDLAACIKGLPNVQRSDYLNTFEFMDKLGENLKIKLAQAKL
A test compound is prepared as 10 mM stock in DMSO and diluted to 50× final concentration in DMSO, for a 50 μl reaction mixture. IDH enzyme activity converting alpha-ketoglutarate to 2-hydroxyglutaric acid is measured using a NADPH depletion assay. In the assay the remaining cofactor is measured at the end of the reaction with the addition of a catalytic excess of diaphorase and resazurin, to generate a fluorescent signal in proportion to the amount of NADPH remaining. […] The reaction is started with the addition of 10 μl of Substrate Mix ([…], 5 mM alpha-ketoglutarate, in Assay Buffer) and the mixture is incubated for 60 minutes at room temperature.

Experiment [2] addresses IDH1 wt/IDH1 R132H heterodimer (Homo sapiens (Human), UniProt O75874, R132H). Briefly: In vitro assay for IDH1m R132H inhibitors, IDH1 wt/IDH1 R132H heterodimer, NADPH depletion (diaphorase/resazurin). It counts as biochemical. The method, boiled down: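 Purified IDH1wt-his/IDH1R132H-flag heterodimer (sf9 co-expression) pre-incubated 1 hr at room temperature with compound and NADPH before α-KG addition. Remaining NADPH read by diaphorase/resazurin conversion to fluorescent resorufin, 5 min at 25° C. Compounds diluted 1:50 from DMSO; IC50 determined.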
In general terms: Resazurin is reduced to fluorescent resorufin, in cell work by metabolically active cells.

The target of experiment [3] is IDH2 R140Q (Homo sapiens (Human), UniProt P48735, R140Q). In words: In vitro assay for IDH2m R140Q inhibitors, cofactor depletion assay. It is filed as biochemical. The settings on record: IDH2 R140Q enzyme. The method, boiled down:
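Remaining cofactor measured fluorimetrically: diaphorase/resazurin Stop Mix […], halting the reaction. Before that, mutant enzyme and compound sat 1 h at RT, then substrate mix (4 μM NADPH, 1.6 mM α-KG) was added for 16 h at RT.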

Experiment [4] has as its system U87MG pLVX-IDH2 R140Q-neo cells. In words: U87MG pLVX-IDH2 R140Q-neo cell based assay, 2-HG by LC-MS. The settings on record: Homo sapiens, U-87 MG.
Experiment [5] has as its system Neurosphere cells (TS603). In words: Cellular assay for IDH1m R132H inhibitors, 2-HG by LC-MS in neurosphere cells (TS603). It is filed as cell-based. Conditions: 2-HG in media at 48 hours. As to the method: Cellular Assay for IDH1m R132H Inhibitors.
The following describes the experimental procedures that can be used to obtain data in column 4 of Table 5.
Neurosphere cells (TS603) are grown at 37 C in 5% CO2 in Stem Cell Technologies NeuroCult™ NS-A media supplemented with 1% Primocin, 1% Normocin, 0.0002% Heparin, 20 ng/mL EGF and 10 ng/mL bFGF. Cells are harvested, pelleted and resuspended in Accumax for cell dissociation and counting. Cells are counted and then resuspended in NeuroCult media with 2× heparin, EGF and bFGF at 4 million cells/10 mL media. 100 μl of cell solution are plated in each well of a 96 well with the exception of columns 1 and 12. Columns 1 and 12 contain 200 μL PBS. Compound dose responses are set up at a 2× concentration in Neurocult media without heparin, EGF and bFGF. The final concentration of DMSO is 0.25%. DMSO only control wells are plated in row H. The plates are then placed in the incubator for 48 hours. At 48 hours, 100 μl of media is removed from each well and analyzed by LC-MS for 2-HG concentrations. The cell plate is placed back in the incubator for another 24 hours. At 72 hours post compound addition, 10 mL/plate of Promega Cell Titer Glo reagent is thawed and mixed. The cell plate is removed from the incubator and allowed to equilibrate to room temperature. Then 100 μl of Promega Cell Titer Glo reagent is added to each well of media. The cell plate is then placed on an orbital shaker for 10 minutes and then allowed to sit at room temperature for 20 minutes. The plate is then read for luminescence with an integration time of 500 ms.

Where [6] appears, read: IDH1 wt/R132H heterodimer, NADPH/NADP, not saturated, read-out: IDH1 wt/R132H NADPH/NADP IC50 not saturated.
The mark [7] stands for this setting: IDH1 wt/IDH1 R132H heterodimer, 300 μM NADP (saturated), read-out: IDH1 wt/R132H NADPH/NADP IC50 saturated.

Chain of IDH2 R140Q (P48735 40-452 R140Q): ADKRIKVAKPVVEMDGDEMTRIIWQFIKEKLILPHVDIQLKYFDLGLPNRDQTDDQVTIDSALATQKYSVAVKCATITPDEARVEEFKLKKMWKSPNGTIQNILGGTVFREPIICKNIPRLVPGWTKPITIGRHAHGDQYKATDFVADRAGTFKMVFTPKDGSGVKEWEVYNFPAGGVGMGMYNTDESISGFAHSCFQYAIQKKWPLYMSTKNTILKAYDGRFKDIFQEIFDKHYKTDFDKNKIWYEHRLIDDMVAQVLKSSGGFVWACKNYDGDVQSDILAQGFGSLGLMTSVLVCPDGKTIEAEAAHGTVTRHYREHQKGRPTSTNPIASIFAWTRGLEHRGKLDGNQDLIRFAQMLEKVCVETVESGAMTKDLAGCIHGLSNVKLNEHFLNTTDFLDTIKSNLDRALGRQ
Chain of IDH1 wt/IDH1 R132H heterodimer (O75874 whole entry R132H): as the sequence (O75874 whole entry R132H) above
Chain of IDH1 wt/IDH1 R132H heterodimer (O75874 whole entry, stated change not applied): as the sequence (O75874 whole entry R132H) above, with H132R counted along it

Consider `Cc1nc(-c2nc(NC3CCC(F)(F)CC3)nc(NC3CCC(F)(F)CC3)n2)c[nH]1` [Compound 332], for which the IC50 in experiment [1] and in experiment [2] (setting [6]) was over 1000 nM in each case.

In the case of `Cc1nc(-c2nc(NC3CC(F)(F)C3)nc(NC3CC(F)(F)C3)n2)c[nH]1` [Compound 317], the IC50 in experiment [1] and in experiment [2] (setting [6]) was over 1000 nM in each case.

In the case of `Cn1cc(-c2nc(NC3CCC(F)(F)CC3)nc(NC3CCC(F)(F)CC3)n2)c(C(F)(F)F)n1` [Compound 275], the IC50 was over 1000 nM in experiment [1] and 100 to 1000 nM in experiment [2] (setting [6]).

As to `FC1(F)CCC(Nc2cc(NC3CCC(F)(F)CC3)nc(-c3cncc(C(F)(F)F)n3)n2)CC1` [Compound 421], the IC50 in experiment [1] and in experiment [2] (setting [6]) was 100 to 1000 nM throughout.

As to `Cc1nsc(-c2nc(NC3CCC(F)(F)CC3)nc(NC3CCC(F)(F)CC3)n2)n1` [Compound 328], the IC50 in experiment [1] and in experiment [2] (setting [6]) was over 1000 nM in each case.

`C[C@@H](Nc1nc(Nc2ccnc(-c3ccc(C#N)cc3)c2)nc(-c2cccc(C(F)(F)F)n2)n1)C(F)(F)F` [Compound 383]: the IC50 in experiment [3] is under 50 nM; in experiment [4], under 50 nM; in experiment [5] it was under 50 nM; in experiment [2] (setting [7]), 100 to 1000 nM.

For the molecule `FC(F)(F)c1cc(Nc2nc(NCC3CC3)nc(-c3nc(C(F)(F)F)cs3)n2)ccn1` [Compound 379], the IC50 in experiment [3] was under 50 nM; in experiment [4] it was under 50 nM; in experiment [5], under 50 nM; in experiment [2] (setting [7]), 50 to 100 nM.

With `Fc1cc(F)cc(Nc2nc(NC3CCC(F)(F)C3)nc(-c3cncc(Cl)n3)n2)c1` (stereo not shown) [Compound 109], the IC50 in experiment [3], in experiment [4], in experiment [5] and in experiment [2] (setting [6]) was under 50 nM throughout.

For `N#CC1(c2cc(Nc3nc(N[C@H]4CCC(F)(F)C4)nc(-c4ccnc(C(F)(F)F)n4)n3)ccn2)CC1` [Compound 341], the IC50 in experiment [3] was under 50 nM; in experiment [4], under 50 nM; in experiment [5] it was under 50 nM; in experiment [2] (setting [7]), 100 to 1000 nM.

For the molecule `CC[C@H](Nc1nc(N[C@@H](CC)C(F)(F)F)nc(-c2ccnc(C(F)(F)F)n2)n1)C(F)(F)F` [Compound 345], the IC50 was 100 to 1000 nM in experiment [3], 100 to 1000 nM in experiment [4], under 50 nM in experiment [5] and under 50 nM in experiment [2] (setting [7]).

In the case of `FC1(F)CC[C@@H](Nc2nc(Nc3ccnc(C(F)(F)F)c3)nc(-c3ccnc(C(F)(F)F)n3)n2)C1` [Compound 340], the IC50 in experiment [3] is under 50 nM; in experiment [4], under 50 nM; in experiment [5] it was 50 to 100 nM; in experiment [2] (setting [7]), 100 to 1000 nM.

Regarding `CC(F)(F)c1cc(Nc2nc(N[C@@H]3CCC(F)(F)C3)nc(-c3cccc(C(F)(F)F)n3)n2)ccn1` [Compound 355], the IC50 in experiment [3], in experiment [4], in experiment [5] and in experiment [2] (setting [7]) was under 50 nM in each case.

As to `N#CC1(c2cc(Nc3nc(N[C@@H]4CCC(F)(F)C4)nc(-c4nccc(C(F)(F)F)n4)n3)ccn2)CC1` [Compound 375], the IC50 in experiment [3] is under 50 nM; in experiment [4], under 50 nM; in experiment [5], under 50 nM; in experiment [2] (setting [7]), 100 to 1000 nM.

As for `CC(F)(F)c1cc(Nc2nc(NC3CCC(F)(F)CC3)nc(-c3cccc(C(F)(F)F)n3)n2)ccn1` [Compound 361], the IC50 was under 50 nM in experiment [3], under 50 nM in experiment [4], under 50 nM in experiment [5] and 50 to 100 nM in experiment [2] (setting [7]).

For the molecule `CC(F)(F)c1cc(Nc2nc(N[C@H]3CCC(F)(F)C3)nc(-c3cccc(C(F)(F)F)n3)n2)ccn1` [Compound 360], the IC50 in experiment [3], in experiment [4], in experiment [5] and in experiment [2] (setting [7]) was under 50 nM in each case.

In the case of `FC(F)(F)c1cc(Nc2nc(NCC3CC3(F)F)nc(-c3cccc(C(F)(F)F)n3)n2)ccn1` (stereo not shown) [Compound 365], the IC50 was under 50 nM in experiment [3], under 50 nM in experiment [4], under 50 nM in experiment [5] and 50 to 100 nM in experiment [2] (setting [7]).

Consider `C[C@H](Nc1nc(Nc2ccnc(C3(C#N)CC3)c2)nc(-n2ccc(C(F)(F)F)n2)n1)C(F)(F)F` [Compound 349], for which the IC50 in experiment [3], in experiment [4], in experiment [5] and in experiment [2] (setting [7]) was under 50 nM each time.

Consider `FC1(F)CCC(Nc2nc(NC3CCC(c4ccccc4)C3)nc(-c3cccc(C(F)(F)F)n3)n2)C1` (stereo not shown) [Compound 184], for which the IC50 in experiment [3], in experiment [4], in experiment [5] and in experiment [2] (setting [6]) was under 50 nM throughout.

`Fc1ccc2c(c1)CC(Nc1nc(NC3CCC(F)(F)C3)nc(-c3cccc(C(F)(F)F)n3)n1)C2` (stereo not shown) [Compound 150]: the IC50 in experiment [3], in experiment [4], in experiment [5] and in experiment [2] (setting [6]) was under 50 nM throughout.

In the case of `Fc1cc(F)cc(Nc2nc(NC3CCC(F)(F)CC3)nc(-c3cncc(C(F)(F)F)n3)n2)c1` [Compound 367], the IC50 in experiment [3], in experiment [4], in experiment [5] and in experiment [2] (setting [7]) was under 50 nM each time.

On to `FC1(F)CCC(Nc2nc(NC3CCC(F)(F)C3)nc(-c3cccc(C(F)(F)F)n3)n2)CC1` (stereo not shown) [Compound 395], for which the IC50 in experiment [3], in experiment [4], in experiment [5] and in experiment [2] (setting [7]) was under 50 nM throughout.

For `FC(F)(F)c1cc(Nc2nc(NCC3CC3)nc(-c3cncc(C(F)(F)F)n3)n2)ccn1` [Compound 387], the IC50 in experiment [3] is under 50 nM; in experiment [4], under 50 nM; in experiment [5] it was under 50 nM; in experiment [2] (setting [7]) it was 100 to 1000 nM.

As for `FC1(F)CCC(Nc2nc(NC3CC4(C3)CC(F)(F)C4)nc(-c3cccc(C(F)(F)F)n3)n2)CC1` [Compound 228], the IC50 in experiment [3], in experiment [4], in experiment [5] and in experiment [2] (setting [6]) was under 50 nM each time.

On to `CC(F)(F)c1csc(-c2nc(NC3CCC(F)(F)CC3)nc(NC3CCC(F)(F)CC3)n2)n1` [Compound 357], for which the IC50 was under 50 nM in experiment [3], under 50 nM in experiment [4], under 50 nM in experiment [5] and 50 to 100 nM in experiment [2] (setting [7]).

As to `C[C@H](Nc1nc(Nc2ccnc(C3(C#N)CC3)c2)nc(-c2cccc(C(C)(F)F)n2)n1)C(F)(F)F` [Compound 347], the IC50 in experiment [3], in experiment [4], in experiment [5] and in experiment [2] (setting [7]) was under 50 nM each time.

Turning to `FC1(F)CC[C@@H](Nc2nc(N[C@H]3CCC(F)(F)C3)nc(-c3cncc(C(F)(F)F)n3)n2)C1` [Compound 399], the IC50 in experiment [3], in experiment [4], in experiment [5] and in experiment [2] (setting [7]) was under 50 nM throughout.

Take `Fc1cc(F)cc(Nc2nc(N[C@@H]3CCC(F)(F)C3)nc(-c3cncc(C(F)(F)F)n3)n2)c1` [Compound 369]: the IC50 in experiment [3], in experiment [4], in experiment [5] and in experiment [2] (setting [7]) was under 50 nM throughout.

For the molecule `N#Cc1cc(Nc2nc(NC3CCC(F)(F)CC3)nc(-c3cccc(C(F)(F)F)n3)n2)ccn1` [Compound 204], the IC50 in experiment [3], in experiment [4], in experiment [5] and in experiment [2] (setting [6]) was under 50 nM throughout.

Regarding `Fc1ccc([C@H]2C[C@H](Nc3nc(NC4CCC(F)(F)C4)nc(-c4cccc(C(F)(F)F)n4)n3)C2)cc1` (stereo partly shown) [Compound 230], the IC50 in experiment [3], in experiment [4], in experiment [5] and in experiment [2] (setting [6]) was under 50 nM throughout.
